# System: sweetness taste receptors of the tongue
# Test: blocking the sense of sweetness by topical delivery to mouth and tongue
# Assay type: in vivo
# Details: about 10 mg to about 80 mg glycyrrhizin delivered concurrently with gymnemic acid
# From the text: Without being bound to any particular theory of action, it is currently believed that the appetite control compositions according to the invention deliver a relatively small dose of an active ingredient, gymnemic acid, directly to the sweetness taste receptors of the tongue, which blocks the sense of sweetness and thereby produces appetite control.
# Gymnema sylvestre is commonly called Gurmar. It is well known in the art as a “sugar blocker.” Gymnema sylvestre contains the bitter principle gymnemic acid, which is well known for its ability to bind to the sweetness taste receptors on the tongue and to sugar absorption sites in the gut. Formerly, Gymnema sylvestre and extracts standardized to deliver gymnemic acid have been incorporated into traditional dosage forms to take advantage of its ability to block the absorption of sugar from the gut. […]
# The appetite control compositions according to the invention include Gymnema sylvestre herb or, preferably, an extract of Gymnema sylvestre herb designed to maximize the quantity of gymnemic acid it contains. […]
# In some embodiments, the appetite control compositions according to the invention include Glycyrrhiza glabra root or, preferably, an extract of Glycyrrhiza glabra root designed to maximize the quantity of glycyrrhizin it contains. […]
smiles,measurement,value
CC1(C)[C@@H](O[C@H]2O[C@H](C(=O)O)[C@@H](O)[C@H](O)[C@H]2O[C@@H]2O[C@H](C(=O)O)[C@@H](O)[C@H](O)[C@H]2O)CC[C@]2(C)[C@H]3C(=O)C=C4[C@@H]5C[C@@](C)(C(=O)O)CC[C@]5(C)CC[C@@]4(C)[C@]3(C)CC[C@@H]12 [glycyrrhizin],effect on quantity of gymnemic acid required to block the sense of sweetness for 1 to 2 hours,effectively reduces the quantity of gymnemic acid required
